Source: patent US10494332B2, “Protein tyrosine phosphatases or SHP2 inhibitors and uses thereof” (Indiana University Research and Technology Corporation, priority 2015, dated 2019)
“And” between values parts separate entries of the source, which are not always exact repeats. Equal values may be shown once. Read-outs that look alike come from different tables or passages of the source.

Experiments:
Test in all cases: PTP inhibition assay (pNPP)
Assay type in all cases: biochemical
Laforin = biological target: T1, Laforin (Homo sapiens, UniProt O95278); conditions: for IC50: pNPP at Km, pH 7.0, 25° C.
T1 sequence (O95278 1-331): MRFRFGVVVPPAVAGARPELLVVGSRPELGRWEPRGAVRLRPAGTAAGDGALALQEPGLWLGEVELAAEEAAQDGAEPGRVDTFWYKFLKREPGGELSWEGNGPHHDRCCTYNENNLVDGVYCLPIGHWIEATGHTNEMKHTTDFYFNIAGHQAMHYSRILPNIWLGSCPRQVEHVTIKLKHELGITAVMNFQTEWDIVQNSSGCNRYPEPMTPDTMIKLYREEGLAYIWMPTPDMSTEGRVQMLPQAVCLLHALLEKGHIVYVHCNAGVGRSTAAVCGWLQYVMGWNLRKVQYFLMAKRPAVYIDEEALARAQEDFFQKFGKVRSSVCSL

TbPTP1 = TbPTP1 (Trypanosoma brucei brucei, UniProt Q38AT7); conditions: pH 7.0, 25° C.
PTP1B = biological target: T2, PTP1B (Homo sapiens, UniProt P18031); conditions: pNPP at Km, pH 7.0, 25° C.
T2 sequence (P18031 1-435): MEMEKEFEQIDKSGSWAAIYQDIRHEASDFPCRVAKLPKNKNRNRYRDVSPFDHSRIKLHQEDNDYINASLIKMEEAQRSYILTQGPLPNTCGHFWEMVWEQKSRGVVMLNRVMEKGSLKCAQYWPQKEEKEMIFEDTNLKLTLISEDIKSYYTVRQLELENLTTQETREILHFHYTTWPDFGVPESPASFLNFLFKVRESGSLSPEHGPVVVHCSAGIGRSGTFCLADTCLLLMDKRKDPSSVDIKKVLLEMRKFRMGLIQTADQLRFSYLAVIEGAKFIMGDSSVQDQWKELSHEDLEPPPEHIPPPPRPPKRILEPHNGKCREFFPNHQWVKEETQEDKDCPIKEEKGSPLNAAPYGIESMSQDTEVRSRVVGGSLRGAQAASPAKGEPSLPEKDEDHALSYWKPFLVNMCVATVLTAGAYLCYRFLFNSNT

SHP1 = SHP1 (Homo sapiens, UniProt P29350); conditions: pNPP at Km, pH 7.0, 25° C.
HePTP = biological target: T3, HePTP (Homo sapiens, UniProt P35236); conditions: pNPP at Km, pH 7.0, 25° C.
T3 sequence (P35236 1-360): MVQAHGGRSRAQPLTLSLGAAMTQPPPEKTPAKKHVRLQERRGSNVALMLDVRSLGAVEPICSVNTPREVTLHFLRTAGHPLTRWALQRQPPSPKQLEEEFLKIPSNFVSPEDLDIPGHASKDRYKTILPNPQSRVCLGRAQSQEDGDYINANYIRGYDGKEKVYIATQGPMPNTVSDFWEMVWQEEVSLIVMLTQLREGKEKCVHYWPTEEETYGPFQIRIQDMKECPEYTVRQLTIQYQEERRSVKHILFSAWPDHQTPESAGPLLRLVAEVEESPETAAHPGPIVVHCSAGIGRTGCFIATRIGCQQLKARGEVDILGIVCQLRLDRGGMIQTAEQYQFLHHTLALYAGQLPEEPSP

FAP1 = FAP1 (Homo sapiens, UniProt Q12923)
VHR = VHR (Homo sapiens, UniProt P51452); conditions: pNPP at Km, pH 7.0, 25° C.
VHX = biological target: T4, VHX (Homo sapiens, UniProt Q9NRW4)
T4 sequence (Q9NRW4 1-184): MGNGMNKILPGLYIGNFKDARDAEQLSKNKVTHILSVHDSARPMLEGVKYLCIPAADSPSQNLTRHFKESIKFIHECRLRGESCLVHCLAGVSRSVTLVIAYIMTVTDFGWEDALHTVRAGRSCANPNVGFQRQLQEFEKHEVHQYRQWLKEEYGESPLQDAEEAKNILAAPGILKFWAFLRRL

PTPβ = PTPβ (Homo sapiens, UniProt P23467)
PTPγ = PTPγ (Homo sapiens, UniProt P23470)
PTPσ = PTPσ (Homo sapiens, UniProt Q13332)
PTPε = PTPε (Homo sapiens, UniProt P23469)
CDC14A = biological target: T5, CDC14A (Homo sapiens, UniProt Q9UNH5)
T5 sequence (Q9UNH5 1-594): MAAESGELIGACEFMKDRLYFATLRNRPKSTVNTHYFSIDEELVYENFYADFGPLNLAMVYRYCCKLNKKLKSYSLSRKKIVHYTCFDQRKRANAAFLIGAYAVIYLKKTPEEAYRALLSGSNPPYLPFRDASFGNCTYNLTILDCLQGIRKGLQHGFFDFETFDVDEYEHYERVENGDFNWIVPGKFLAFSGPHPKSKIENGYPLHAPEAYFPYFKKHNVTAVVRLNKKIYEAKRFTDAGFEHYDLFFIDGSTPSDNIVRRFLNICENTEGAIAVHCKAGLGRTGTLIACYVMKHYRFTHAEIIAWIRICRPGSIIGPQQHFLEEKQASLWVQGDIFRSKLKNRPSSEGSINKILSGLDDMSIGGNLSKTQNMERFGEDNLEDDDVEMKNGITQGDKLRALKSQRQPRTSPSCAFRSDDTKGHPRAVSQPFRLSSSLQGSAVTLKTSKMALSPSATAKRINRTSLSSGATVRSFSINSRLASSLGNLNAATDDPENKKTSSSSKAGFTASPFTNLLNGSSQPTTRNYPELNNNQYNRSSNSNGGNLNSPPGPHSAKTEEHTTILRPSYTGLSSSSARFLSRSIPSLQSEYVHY

[1] = pNPP at Km, read-out: IC50 TbPTP1
[2] = pNPP at Km, pH 7.0, 25° C., read-out: IC50 FAP1
[3] = pNPP at Km, pH 7.0, 25° C.; read-out: IC50 VHX
[4] = pNPP at Km, pH 7.0, 25° C.; read-out: IC50 VHX (second VHX line of Table 15)
[5] = IC50 VHX (second VHX line of Table 15), pNPP at Km, pH 7.0, 25° C.
[6] = IC50 VHX, pNPP at Km, pH 7.0, 25° C.

Sequence of PTPβ (P23467 23-1997): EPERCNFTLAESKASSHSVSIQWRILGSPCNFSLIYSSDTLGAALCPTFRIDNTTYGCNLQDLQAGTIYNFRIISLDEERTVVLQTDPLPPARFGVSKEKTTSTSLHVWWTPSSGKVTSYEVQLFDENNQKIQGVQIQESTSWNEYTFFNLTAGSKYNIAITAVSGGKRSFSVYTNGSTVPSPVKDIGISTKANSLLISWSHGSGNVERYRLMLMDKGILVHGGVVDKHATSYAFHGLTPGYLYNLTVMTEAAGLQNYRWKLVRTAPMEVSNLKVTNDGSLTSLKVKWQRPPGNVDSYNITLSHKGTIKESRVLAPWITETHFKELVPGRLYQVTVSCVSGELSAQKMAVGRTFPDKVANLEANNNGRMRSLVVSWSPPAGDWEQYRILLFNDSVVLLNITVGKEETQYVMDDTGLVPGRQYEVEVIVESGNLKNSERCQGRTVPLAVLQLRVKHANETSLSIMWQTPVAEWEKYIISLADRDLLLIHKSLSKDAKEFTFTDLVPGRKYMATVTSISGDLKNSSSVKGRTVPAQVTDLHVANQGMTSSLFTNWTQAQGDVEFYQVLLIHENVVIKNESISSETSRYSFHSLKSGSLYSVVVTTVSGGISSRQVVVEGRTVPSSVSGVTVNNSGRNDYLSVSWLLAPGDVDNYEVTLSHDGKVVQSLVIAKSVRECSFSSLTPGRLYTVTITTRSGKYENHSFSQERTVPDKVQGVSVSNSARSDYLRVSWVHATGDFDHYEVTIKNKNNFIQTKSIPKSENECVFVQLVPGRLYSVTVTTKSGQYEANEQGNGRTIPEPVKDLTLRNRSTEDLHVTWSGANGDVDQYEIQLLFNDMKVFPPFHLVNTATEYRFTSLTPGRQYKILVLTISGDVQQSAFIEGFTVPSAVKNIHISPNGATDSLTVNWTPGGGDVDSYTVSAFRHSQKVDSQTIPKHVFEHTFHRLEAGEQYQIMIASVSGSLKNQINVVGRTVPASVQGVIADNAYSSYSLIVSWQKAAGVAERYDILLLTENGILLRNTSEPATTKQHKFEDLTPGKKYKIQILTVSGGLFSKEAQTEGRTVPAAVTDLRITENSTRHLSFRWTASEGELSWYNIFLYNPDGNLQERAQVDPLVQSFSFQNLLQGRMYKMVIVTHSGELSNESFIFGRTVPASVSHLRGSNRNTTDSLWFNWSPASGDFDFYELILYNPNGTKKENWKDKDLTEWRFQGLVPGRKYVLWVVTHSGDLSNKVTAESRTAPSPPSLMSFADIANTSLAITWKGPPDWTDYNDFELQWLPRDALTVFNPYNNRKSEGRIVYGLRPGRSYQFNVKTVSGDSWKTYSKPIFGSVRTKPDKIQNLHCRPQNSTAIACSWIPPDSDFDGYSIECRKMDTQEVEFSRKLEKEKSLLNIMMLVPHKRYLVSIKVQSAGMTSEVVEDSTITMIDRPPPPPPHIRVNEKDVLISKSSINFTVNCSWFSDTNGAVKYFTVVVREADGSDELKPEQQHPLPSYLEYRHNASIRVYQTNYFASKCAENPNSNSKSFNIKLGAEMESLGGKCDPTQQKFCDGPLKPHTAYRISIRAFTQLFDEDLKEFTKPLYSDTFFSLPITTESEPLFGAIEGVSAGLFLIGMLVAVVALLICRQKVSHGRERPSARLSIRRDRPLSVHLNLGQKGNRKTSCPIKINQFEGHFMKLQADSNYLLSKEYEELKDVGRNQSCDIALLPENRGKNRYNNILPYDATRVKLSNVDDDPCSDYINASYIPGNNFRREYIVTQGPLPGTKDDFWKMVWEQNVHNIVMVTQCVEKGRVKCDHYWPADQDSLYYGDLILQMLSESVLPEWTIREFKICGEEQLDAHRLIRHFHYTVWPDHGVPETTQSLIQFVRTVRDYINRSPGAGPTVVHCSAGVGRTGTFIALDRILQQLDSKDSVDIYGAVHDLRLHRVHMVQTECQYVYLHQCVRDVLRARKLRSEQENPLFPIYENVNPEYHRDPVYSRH
Sequence of VHR (P51452 whole entry): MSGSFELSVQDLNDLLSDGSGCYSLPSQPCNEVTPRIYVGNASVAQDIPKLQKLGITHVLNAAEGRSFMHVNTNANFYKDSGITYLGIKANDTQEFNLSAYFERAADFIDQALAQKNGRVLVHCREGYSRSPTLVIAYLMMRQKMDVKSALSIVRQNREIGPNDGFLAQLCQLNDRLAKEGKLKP
Sequence of TbPTP1 (Q38AT7 entry or part of it): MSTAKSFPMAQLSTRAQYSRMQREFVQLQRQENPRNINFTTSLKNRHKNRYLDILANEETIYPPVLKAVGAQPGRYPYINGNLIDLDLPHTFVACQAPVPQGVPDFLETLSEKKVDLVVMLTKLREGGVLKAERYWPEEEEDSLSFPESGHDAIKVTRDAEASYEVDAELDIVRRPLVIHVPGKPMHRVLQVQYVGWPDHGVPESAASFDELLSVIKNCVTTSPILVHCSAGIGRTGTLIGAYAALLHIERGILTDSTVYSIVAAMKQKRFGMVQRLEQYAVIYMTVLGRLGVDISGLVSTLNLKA
Sequence of PTPσ (Q13332 30-1948): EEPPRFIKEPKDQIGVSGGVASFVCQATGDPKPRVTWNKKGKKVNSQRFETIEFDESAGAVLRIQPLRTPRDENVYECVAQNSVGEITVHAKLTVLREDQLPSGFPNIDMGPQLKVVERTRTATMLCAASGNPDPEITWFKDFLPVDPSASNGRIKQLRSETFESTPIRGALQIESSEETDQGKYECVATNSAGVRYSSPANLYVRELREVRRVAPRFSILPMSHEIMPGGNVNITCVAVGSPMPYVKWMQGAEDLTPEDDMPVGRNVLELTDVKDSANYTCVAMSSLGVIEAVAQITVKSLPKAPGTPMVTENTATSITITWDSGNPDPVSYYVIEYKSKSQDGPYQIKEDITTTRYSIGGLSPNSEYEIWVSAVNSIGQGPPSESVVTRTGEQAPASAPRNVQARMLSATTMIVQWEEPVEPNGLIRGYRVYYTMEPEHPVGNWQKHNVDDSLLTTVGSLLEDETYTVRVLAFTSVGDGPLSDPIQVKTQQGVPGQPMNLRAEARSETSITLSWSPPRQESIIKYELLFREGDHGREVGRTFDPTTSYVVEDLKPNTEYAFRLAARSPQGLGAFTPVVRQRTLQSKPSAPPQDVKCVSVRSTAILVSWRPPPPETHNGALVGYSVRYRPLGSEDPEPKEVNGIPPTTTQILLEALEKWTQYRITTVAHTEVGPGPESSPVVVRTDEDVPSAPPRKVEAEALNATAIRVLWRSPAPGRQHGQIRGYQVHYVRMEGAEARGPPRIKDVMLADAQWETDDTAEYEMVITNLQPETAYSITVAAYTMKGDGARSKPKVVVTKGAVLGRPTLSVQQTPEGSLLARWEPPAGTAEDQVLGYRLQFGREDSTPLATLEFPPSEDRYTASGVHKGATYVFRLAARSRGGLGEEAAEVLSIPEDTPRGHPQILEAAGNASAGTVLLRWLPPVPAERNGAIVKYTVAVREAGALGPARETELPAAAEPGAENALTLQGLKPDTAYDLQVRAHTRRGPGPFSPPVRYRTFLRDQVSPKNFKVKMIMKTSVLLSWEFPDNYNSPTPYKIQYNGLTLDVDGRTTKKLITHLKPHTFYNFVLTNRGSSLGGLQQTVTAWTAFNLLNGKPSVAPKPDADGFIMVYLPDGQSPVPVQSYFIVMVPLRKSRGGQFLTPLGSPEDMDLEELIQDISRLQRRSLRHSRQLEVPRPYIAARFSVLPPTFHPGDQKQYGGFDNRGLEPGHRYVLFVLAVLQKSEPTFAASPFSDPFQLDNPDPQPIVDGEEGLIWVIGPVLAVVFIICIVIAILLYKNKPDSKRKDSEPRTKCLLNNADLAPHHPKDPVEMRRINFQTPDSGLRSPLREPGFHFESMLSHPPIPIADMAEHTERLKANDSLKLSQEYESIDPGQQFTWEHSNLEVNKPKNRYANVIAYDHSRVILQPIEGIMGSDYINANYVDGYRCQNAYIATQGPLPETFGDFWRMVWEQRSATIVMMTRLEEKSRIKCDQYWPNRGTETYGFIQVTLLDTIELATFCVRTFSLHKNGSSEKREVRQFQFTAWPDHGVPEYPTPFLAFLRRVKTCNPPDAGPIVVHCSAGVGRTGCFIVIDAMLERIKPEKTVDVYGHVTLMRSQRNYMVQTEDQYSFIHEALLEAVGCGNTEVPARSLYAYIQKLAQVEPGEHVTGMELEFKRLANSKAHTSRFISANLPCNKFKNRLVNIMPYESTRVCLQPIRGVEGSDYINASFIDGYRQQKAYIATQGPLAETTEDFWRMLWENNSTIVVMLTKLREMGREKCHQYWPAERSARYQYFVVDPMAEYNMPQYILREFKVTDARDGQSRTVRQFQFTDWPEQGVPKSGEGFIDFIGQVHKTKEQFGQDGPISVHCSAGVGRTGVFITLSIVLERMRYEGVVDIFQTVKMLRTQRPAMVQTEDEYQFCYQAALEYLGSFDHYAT
Sequence of SHP1 (P29350 whole entry): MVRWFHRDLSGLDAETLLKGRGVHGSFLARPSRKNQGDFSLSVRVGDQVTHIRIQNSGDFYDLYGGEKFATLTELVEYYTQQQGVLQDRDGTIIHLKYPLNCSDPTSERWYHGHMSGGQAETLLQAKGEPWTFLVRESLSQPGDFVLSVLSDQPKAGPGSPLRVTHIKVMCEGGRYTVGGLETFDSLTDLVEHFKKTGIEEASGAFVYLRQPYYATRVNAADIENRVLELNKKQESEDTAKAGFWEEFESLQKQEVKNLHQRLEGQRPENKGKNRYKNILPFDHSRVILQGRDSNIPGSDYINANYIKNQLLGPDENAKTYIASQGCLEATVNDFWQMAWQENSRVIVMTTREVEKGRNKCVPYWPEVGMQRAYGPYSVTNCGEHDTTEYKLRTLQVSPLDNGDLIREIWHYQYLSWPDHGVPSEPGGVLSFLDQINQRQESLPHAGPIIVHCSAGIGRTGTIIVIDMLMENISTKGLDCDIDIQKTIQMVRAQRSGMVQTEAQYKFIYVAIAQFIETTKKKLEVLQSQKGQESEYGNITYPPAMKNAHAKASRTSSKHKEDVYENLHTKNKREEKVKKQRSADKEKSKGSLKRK

SMILES	IC50 (Laforin; read-out: IC50 Laforin)	IC50 (TbPTP1; [1])	IC50 (PTP1B)	IC50 (SHP1)	IC50 (HePTP)	IC50 (FAP1; [2])	IC50 (VHR)	IC50 (VHX; [3])	IC50 (PTPβ)	IC50 (PTPγ)	IC50 (PTPε)	IC50 (VHX; [4])	IC50 (CDC14A)	other results
O=C(NCCNC(=O)C(c1ccccc1)S(=O)(=O)O)c1cccc(C(=O)c2ccccc2)c1 (centres unmarked) [Compound L319-02-A60]	9 µM	> 200 µM	> 200 µM	> 200 µM	> 200 µM	> 200 µM	> 200 µM	> 200 µM	–	–	–	–	–	–
O=C(CS(=O)(=O)O)Nc1cnc2ccccc2c1	> 100 µM	> 100 µM	> 100 µM	> 100 µM	> 100 µM	> 100 µM	> 100 µM	> 100 µM	> 100 µM	> 100 µM	> 100 µM	> 100 µM	> 100 µM	IC50 (PTPσ; read-out: IC50 PTPσ): > 100 µM
O=C(Nc1nc2ccccc2s1)C(c1ccccc1)S(=O)(=O)O (centres unmarked) [Compound L319N15]	2.1 µM	> 200 µM	> 200 µM	> 200 µM and 59.6 µM	50 µM	34 µM	> 200 µM	> 200 µM	> 200 µM	> 200 µM	> 200 µM	> 200 µM	> 200 µM	IC50 (PTPσ): > 200 µM
O=C(Nc1ccc(N2CCOCC2)cc1)C(c1ccccc1)S(=O)(=O)O (centres unmarked) [Compound L319M68]	7.47 µM and 7.5 µM	> 200 µM	> 200 µM	> 200 µM	> 200 µM	> 200 µM	> 200 µM	> 200 µM	> 200 µM	> 200 µM	> 200 µM	> 200 µM	> 200 µM	IC50 (PTPσ): > 200 µM
Cc1c(Br)cc(NC(=O)C(c2ccccc2)S(=O)(=O)O)cc1Br (centres unmarked) [Compound L319M34]	–	–	–	55.5 µM	> 100 µM	–	–	–	–	–	–	–	–	IC50 (TbPTP1; IC50 TbPTP1, pNPP at Km): > 200 µM; IC50 (FAP1; IC50 FAP1): > 100 µM; IC50 (VHX; [5]): > 200 µM; IC50 (VHX; [6]): 92 µM; IC50 (VHX; read-out: IC50 VHX; pNPP at Km, pH 7.0, 25° C.): 92 µM
O=C(Nc1cccc(OCc2ccccc2)c1)C(=O)Nc1ccccc1NC(=O)C(c1ccccc1)S(=O)(=O)O (centres unmarked) [Compound L319-21-M52]	0.15 µM	> 50 µM	> 50 µM	> 50 µM	> 50 µM	> 50 µM	> 50 µM	> 50 µM	–	–	–	–	–	–
O=C(Nc1cnc2ccccc2c1)C(c1ccccc1)S(=O)(=O)O (centres unmarked) [Compound L319M88]	8.51 µM and 8.5 µM	> 200 µM	> 200 µM	> 200 µM	> 200 µM	> 200 µM	> 200 µM	> 200 µM	> 200 µM	> 200 µM	> 200 µM	> 200 µM	> 200 µM	IC50 (PTPσ): > 200 µM
O=C(C(c1ccccc1)S(=O)(=O)O)N1CCC(c2ccc(Cl)c(Cl)c2)CC1 (centres unmarked) [Compound L319N47]	61 µM	38 µM	145 µM	66 µM	77 µM	21 µM	99 µM	150 µM	50 µM	180 µM	> 200 µM	–	> 200 µM	IC50 (PTPσ; read-out: IC50 PTPσ): > 200 µM
O=C(CS(=O)(=O)O)Nc1ccc2nc(C(F)(F)F)[nH]c2c1	> 100 µM	> 100 µM	> 100 µM	> 100 µM	> 100 µM	> 100 µM	> 100 µM	> 100 µM	> 100 µM	> 100 µM	> 100 µM	> 100 µM	> 100 µM	IC50 (PTPσ; read-out: IC50 PTPσ): > 100 µM
CCCCc1ccc(NC(=O)C(=O)Nc2ccccc2NC(=O)C(c2ccccc2)S(=O)(=O)O)cc1 (centres unmarked) [Compound L319-21-M06]	0.14 µM	> 50 µM	> 50 µM	> 50 µM	> 50 µM	> 50 µM	> 50 µM	> 50 µM	–	–	–	–	–	–
O=C(CS(=O)(=O)O)Nc1nc2ccc([N+](=O)[O-])cc2s1 [Compound L335N15-07]	> 100 µM	> 100 µM	> 100 µM	> 100 µM	> 100 µM	> 100 µM	> 100 µM	> 100 µM	> 100 µM	> 100 µM	> 100 µM	> 100 µM	> 100 µM	Inhibition of Laforin at 100 μM (Laforin; 100 μM): no detectable inhibition; IC50 (PTPσ; read-out: IC50 PTPσ): > 100 µM
O=C(Nc1ccc(-c2ccccc2)cc1)C(c1ccccc1)S(=O)(=O)O (centres unmarked) [Compound L319N08]	–	> 100 µM	> 200 µM	64.6 µM	78 µM	–	> 200 µM	–	–	–	–	–	–	IC50 (FAP1; IC50 FAP1): 71 µM; IC50 (VHX; [6]): > 200 µM
O=C(NCc1ccc(NC(=O)C(c2ccccc2)S(=O)(=O)O)cc1)c1ccccc1-c1ccc(C(F)(F)F)cc1 (centres unmarked) [Compound L319-05-A64]	0.8 µM	93 µM	183 µM	–	150 µM	70 µM	–	–	–	–	–	–	–	–
Cc1c(Br)cc(NC(=O)CS(=O)(=O)O)cc1Br	–	> 100 µM	> 100 µM	> 100 µM	> 100 µM	–	> 100 µM	–	> 100 µM	> 100 µM	> 100 µM	–	> 100 µM	IC50 (Laforin; IC50 Laforin): > 100 µM; IC50 (VHX; [5]): > 100 µM; IC50 (VHX; [6]): > 100 µM
O=C(Nc1ccc(OCc2ccccc2)c(Cl)c1)C(c1ccccc1)S(=O)(=O)O (centres unmarked) [Compound L319M50]	2.06 µM	> 100 µM	> 200 µM	53.2 µM	> 100 µM	73 µM	> 200 µM	> 100 µM	–	–	–	–	–	–
